Experimental data as given in ChEMBL document CHEMBL2203030, “Synthesis, characterization, antidepressant and antioxidant activity of novel piperamides bearing piperidine and piperazine analogues” (Bioorg Med Chem Lett, 2012).
In brackets after ≈: the same amount, converted by molar mass.

Columns and labels:
Pseudomonas aeruginosa [1] = test: Antimicrobial activity against Pseudomonas aeruginosa NCIM 5029 at 100 ug/mL incubated for 24 hrs by agar disc diffusion method; assay type: functional; details: NCIM 5029, 24 h, read-out: IZ
Bacillus subtilis [2] = test: Antimicrobial activity against Bacillus subtilis NCIM 2999 by broth dilution method; assay type: functional
Staphylococcus aureus [3] = test: Antimicrobial activity against Staphylococcus aureus NCIM 5021 at 100 ug/mL incubated for 24 hrs by agar disc diffusion method; assay type: functional; details: NCIM 5021, 24 h, read-out: IZ
Mus musculus [4] = test: Antidepressant activity in Swiss albino mouse assessed as mean immobility time measured during last 4 mins of single 6 mins test session at 20 mg/kg, po by forced swim test (reference value: 75.33 +/- 3.35 secs); assay type: functional
[5] = Antioxidant activity assessed as superoxide scavenging activity using xanthine-xanthine oxidase system by NBT dye reduction based assay; assay type: functional
[6] = target: T1, Amine oxidase [flavin-containing] A (Mus musculus, UniProt Q64133); test: Inhibition of MAOA in mouse brain mitochondrial fraction assessed as enzyme activity per mg of protein using 5-HT substrate incubated for 20 mins by UV-spectrophotometry; assay type: tissue-based
T1 sequence (Q64133 whole entry): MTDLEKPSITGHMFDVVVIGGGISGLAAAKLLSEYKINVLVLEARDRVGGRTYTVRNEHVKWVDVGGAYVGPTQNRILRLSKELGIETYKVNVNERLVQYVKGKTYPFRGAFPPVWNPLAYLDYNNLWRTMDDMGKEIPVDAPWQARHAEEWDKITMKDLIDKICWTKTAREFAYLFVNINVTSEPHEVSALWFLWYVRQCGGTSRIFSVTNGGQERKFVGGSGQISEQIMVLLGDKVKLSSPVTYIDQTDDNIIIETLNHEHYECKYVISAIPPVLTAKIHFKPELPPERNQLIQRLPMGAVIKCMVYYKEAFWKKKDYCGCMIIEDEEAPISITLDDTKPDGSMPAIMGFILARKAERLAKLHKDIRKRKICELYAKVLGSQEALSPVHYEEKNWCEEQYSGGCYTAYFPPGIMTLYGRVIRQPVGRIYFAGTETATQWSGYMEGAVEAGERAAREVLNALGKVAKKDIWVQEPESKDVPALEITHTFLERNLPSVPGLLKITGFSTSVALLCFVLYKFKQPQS

Aspergillus flavus [7] = test: Antimicrobial activity against Aspergillus flavus NCIM 524 by broth dilution method; assay type: functional
Mus musculus [8] = test: Antidepressant activity in Swiss albino mouse assessed as mean immobility time measured during 6 mins period at 20 mg/kg, po administered 30 mins before test by tail suspension test (reference value: 185.7 +/- 5.33 secs); assay type: functional
Bacillus subtilis [9] = test: Antimicrobial activity against Bacillus subtilis NCIM 2999 at 100 ug/mL incubated for 24 hrs by agar disc diffusion method; assay type: functional; details: NCIM 2999, 24 h, read-out: IZ
Candida albicans [10] = test: Antimicrobial activity against Candida albicans NCIM 3471 by broth dilution method; assay type: functional
[11] = tested on: Radical scavenging activity; test: Antioxidant activity assessed as DPPH free radical scavenging activity by spectrophotometry; assay type: functional
Candida albicans [12] = test: Antimicrobial activity against Candida albicans NCIM 3471 at 100 ug/mL incubated for 48 hrs by agar disc diffusion method; assay type: functional; details: NCIM 3471, 48 h, read-out: IZ
Escherichia coli [13] = test: Antimicrobial activity against Escherichia coli NCIM 2574 by broth dilution method; assay type: functional
Escherichia coli [14] = test: Antimicrobial activity against Escherichia coli NCIM 2574 at 100 ug/mL incubated for 24 hrs by agar disc diffusion method; assay type: functional; details: NCIM 2574, 24 h, read-out: IZ
Staphylococcus aureus [15] = test: Antimicrobial activity against Staphylococcus aureus NCIM 5021 by broth dilution method; assay type: functional
Aspergillus flavus [16] = test: Antimicrobial activity against Aspergillus flavus NCIM 524 at 100 ug/mL incubated for 48 hrs by agar disc diffusion method; assay type: functional; details: NCIM 524, 48 h, read-out: IZ
Pseudomonas aeruginosa [17] = test: Antimicrobial activity against Pseudomonas aeruginosa NCIM 5029 by broth dilution method; assay type: functional
[18] = target: T2, Amine oxidase [flavin-containing] B (Mus musculus, UniProt Q8BW75); test: Inhibition of MAOB in mouse brain mitochondrial fraction assessed as enzyme activity per mg of protein using beta-PEA substrate incubated for 20 mins by UV-spectrophotometry; assay type: tissue-based
T2 sequence (Q8BW75 whole entry): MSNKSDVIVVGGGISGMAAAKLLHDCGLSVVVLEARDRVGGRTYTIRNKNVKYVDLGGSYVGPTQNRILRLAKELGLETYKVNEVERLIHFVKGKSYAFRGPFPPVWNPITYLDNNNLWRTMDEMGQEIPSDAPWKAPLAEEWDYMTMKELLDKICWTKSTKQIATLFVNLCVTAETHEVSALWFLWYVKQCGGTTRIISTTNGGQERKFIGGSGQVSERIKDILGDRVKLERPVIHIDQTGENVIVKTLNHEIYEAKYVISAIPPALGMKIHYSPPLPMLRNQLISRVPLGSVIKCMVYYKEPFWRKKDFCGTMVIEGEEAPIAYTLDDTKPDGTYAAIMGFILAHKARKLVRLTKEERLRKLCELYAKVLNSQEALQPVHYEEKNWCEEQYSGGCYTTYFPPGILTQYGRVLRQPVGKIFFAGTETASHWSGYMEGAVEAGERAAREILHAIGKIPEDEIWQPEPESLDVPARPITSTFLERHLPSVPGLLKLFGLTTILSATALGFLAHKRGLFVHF

SMILES	zone of inhibition at 100 µg/mL (Pseudomonas aeruginosa [1]) [mm]	MIC (Bacillus subtilis [2]) [µg/mL]	zone of inhibition at 100 µg/mL (Staphylococcus aureus [3]) [mm]	Time (Mus musculus [4]) [s]	IC50 [5] [µg/mL]	Activity [6] [nmol]	MIC (Aspergillus flavus [7]) [µg/mL]	Time (Mus musculus [8]) [s]	zone of inhibition at 100 µg/mL (Bacillus subtilis [9]) [mm]	MIC (Candida albicans [10]) [µg/mL]	IC50 [11] [µg/mL]	zone of inhibition at 100 µg/mL (Candida albicans [12]) [mm]	MIC (Escherichia coli [13]) [µg/mL]	zone of inhibition at 100 µg/mL (Escherichia coli [14]) [mm]	MIC (Staphylococcus aureus [15]) [µg/mL]	zone of inhibition at 100 µg/mL (Aspergillus flavus [16]) [mm]	MIC (Pseudomonas aeruginosa [17]) [µg/mL]	Activity [18] [nmol]
COc1cc(/C=C/C(=O)N2CCCC(O)C2)cc2c1OCO2 (stereo not given)	12	62 (≈ 203 µM)	8	35.4	16.9 (≈ 55.3 µM)	16.63	> 100	84.2	11	100 (≈ 328 µM)	13.4 (≈ 43.9 µM)	18	> 100	7	50 (≈ 164 µM)	10	> 100	17.33
COc1cc(/C=C/C(=O)N2C(C)CCCC2C)cc2c1OCO2 (stereo not given)	11	30 (≈ 94.5 µM)	11	43.33	15.8 (≈ 49.8 µM)	–	25 (≈ 78.8 µM)	77.33	12	25 (≈ 78.8 µM)	13.8 (≈ 43.5 µM)	12	50 (≈ 158 µM)	10	28 (≈ 88.2 µM)	15	30 (≈ 94.5 µM)	–
COc1cc(/C=C/C(=O)N2CCC(C)CC2)cc2c1OCO2	9	25 (≈ 82.4 µM)	12	51.6	19.8 (≈ 65.3 µM)	–	30 (≈ 98.9 µM)	104.9	10	30 (≈ 98.9 µM)	15.3 (≈ 50.4 µM)	10	40 (≈ 132 µM)	10	24 (≈ 79.1 µM)	12	36 (≈ 119 µM)	–
COc1cc(/C=C/C(=O)N2CCNCC2)cc2c1OCO2	13	50 (≈ 172 µM)	14	71	38.4 (≈ 132 µM)	–	15 (≈ 51.7 µM)	178	10	25 (≈ 86.1 µM)	20.1 (≈ 69.2 µM)	10	20 (≈ 68.9 µM)	11	30 (≈ 103 µM)	14	25 (≈ 86.1 µM)	–
COc1cc(/C=C/C(=O)N2CCN(C(C)=O)CC2)cc2c1OCO2	14	14 (≈ 42.1 µM)	11	55.83	21.9 (≈ 65.9 µM)	–	22 (≈ 66.2 µM)	116.2	16	15 (≈ 45.1 µM)	23.2 (≈ 69.8 µM)	11	18 (≈ 54.2 µM)	12	14 (≈ 42.1 µM)	10.4	18.7 (≈ 56.3 µM)	–
COc1ccccc1N1CCN(C(=O)/C=C/c2cc(OC)c3c(c2)OCO3)CC1	11	15 (≈ 37.8 µM)	14	59.16	19.4 (≈ 48.9 µM)	–	23 (≈ 58 µM)	124.2	16	17 (≈ 42.9 µM)	14.7 (≈ 37.1 µM)	14.1	20 (≈ 50.4 µM)	9	16.4 (≈ 41.4 µM)	13.6	20 (≈ 50.4 µM)	–
COc1cc(/C=C/C(=O)N2CCN(c3ccccc3)CC2)cc2c1OCO2	13	18 (≈ 49.1 µM)	12	66.2	55.3 (≈ 151 µM)	–	40 (≈ 109 µM)	143.5	14	25 (≈ 68.2 µM)	36.9 (≈ 101 µM)	13.7	25 (≈ 68.2 µM)	10	18.3 (≈ 49.9 µM)	11	25 (≈ 68.2 µM)	–
COc1cc(/C=C/C(=O)N2CCN(c3ccccn3)CC2)cc2c1OCO2	17	15.5 (≈ 42.2 µM)	14	67.6	18.5 (≈ 50.4 µM)	–	15 (≈ 40.8 µM)	148.5	12	14 (≈ 38.1 µM)	19.3 (≈ 52.5 µM)	11.4	22 (≈ 59.9 µM)	11	15.2 (≈ 41.4 µM)	10.9	20 (≈ 54.4 µM)	–
O=C1O[C@H]([C@@H](O)CO)C(O)=C1O [ASCORBIC ACID]	–	–	–	–	–	–	–	–	–	–	12.6 (≈ 71.5 µM)	–	–	–	–	–	–	–
C#CCN(C)CCCOc1ccc(Cl)cc1Cl [CLORGILINE]	–	–	–	–	–	17.05	–	–	–	–	–	–	–	–	–	–	–	18.16
CN(C)CCCN1c2ccccc2CCc2ccccc21 [IMIPRAMINE]	–	–	–	32.17	–	–	–	79.5	–	–	–	–	–	–	–	–	–	–
